The subject of this test is anesthetized rat. Put plainly: Anesthetized rat spirometry screening assay. The note with it: for AUC MV Inc (2 min) (ratio vs. std*): 2 minute AUC of minute volume increase vs. comparator N-[2,6-di-(n-propylamino)-[1,3]pyrimidin-4-yl]-N,O-dimethyl-hydroxylamine; for VE Peak (% Inc.): peak minute ventilation increase, urethane-anesthetized rat, i.v. bolus, screening doses 0.1 and 0.3 mg/kg. The format is in vivo. An excerpt: Effect of Compounds of the Invention on Respiratory Rate (RR), Tidal Volume (VT), and the Product Minute Volume Using an Anesthetized Rat Spirometry Screening Assay
Anesthetized rats provide a quick method of screening compounds for respiratory and cardiovascular activity. In contrast to the conscious rat model, this model offers an experimental set up with less variation in the baseline cardiovascular and respiratory measures. Compounds screened in this assay may be examined in a conscious rat model.
Rats were initially anesthetized with 3% isoflurane (inhaled) and femoral artery and vein cannulas were surgically inserted. Once cannulated, the rats were transitioned to urethane anesthesia (1.5 g/kg; i.v.) and a tracheal cut-down was performed. After placing the tracheal cannula, it was connected to a pneumotachometer to record respiratory airflow from which respiratory rate (RR), tidal volume (VT), and their product minute volume were derived. After the surgical preparation was complete, animals were allowed to stabilize for 30 minutes while respiratory rate, tidal volume, minute volume, blood pressure and heart rate were recorded continuously. Arterial blood gases (ABG) were obtained from arterial blood collected from the femoral artery. ABG measurements were taken before and 6 minutes after vehicle and each dose of compound administered. Compounds being screened were administered via bolus injections through the venous cannula followed by a saline flush (total time of administration is approximately 30 seconds), and the animal was monitored for at least 6 minutes for changes in cardiovascular efforts. Compounds were prepared in formulations identified to ensure optimal solubility. As such, vehicle controls were matched for the formulation of each compound tested. Dosing of the compound being screened was 0.1 and 0.3 mg/kg. The next dose was not administered until all cardiovascular and respiratory measures had returned to baseline levels. The positive control compounds used were N-[4,6-di-(n-propylamino)-[1,3,5]triazin-2-yl]-N,O-dimethyl-hydroxylamine or N-[2,6-di-(n-propylamino)-[1,3]pyrimidin-4-yl]-N,O-dimethyl-hydroxylamine (both administered at the end of each screening experiment (0.3 mg/kg dose) to validate the experiment and also to serve as a measure with which the compound being screened could be compared.
Data were analyzed by collecting cardiovascular and respiratory data in 30 second averages (BINs). Data were plotted 2 minutes before challenge and then 6 minutes after challenge.

Counter-ions that a name gives are not always drawn.

Regarding `CCCN(C)c1nc(N)c2nc(N(C)C)nc(NC)c2n1.Cl` [Compound 56a, N^2,N^2,N^4,N^6-Tetramethyl-N^6-n-propyl-pyrimido[5,4-d]pyrimidine-2,4,6,8-tetraamine hydrochloride], the “AUC MV Inc (2 min) (ratio vs. std*)” value turned out to be 0.79 ratio vs. std.
Consider `C=CCN(CC=C)c1nc(NC)c2nc(NCCC)nc(NC)c2n1` [Compound 58a, N^2,N^2-Diallyl-N^4,N^8-dimethyl-N^6-n-propyl-pyrimido[5,4-d]pyrimidine-2,4,6,8-tetraamine], for which the “AUC MV Inc (2 min) (ratio vs. std*)” value is reported as 0.18 ratio vs. std.
As to `CCCNc1nc(NC)c2nc(NCCOC(C)C)nc(NC)c2n1` [Compound 62a, N^2-(2-Isopropoxy-ethyl)-N^4,N^8-dimethyl-N^6-n-propyl-pyrimido[5,4-d]pyrimidine-2,4,6,8-tetraamine], the “AUC MV Inc (2 min) (ratio vs. std*)” value was found to be 0.55 ratio vs. std.
With `CCCNc1nc(NC)c2nc(N(C)CCN(C)C)nc(NC)c2n1` [Compound 64a, 2-[N-(2-Dimethylamino-ethyl)-N-methyl]amino-N^4,N^8-dimethyl-N^6-n-propyl-pyrimido[5,4-d]pyrimidine-4,6,8-triamine], the “AUC MV Inc (2 min) (ratio vs. std*)” value turned out to be 0.01 ratio vs. std and the “VE Peak (% Inc.)” value is recorded as 9 % Inc.
For `CCCNc1nc(NC)c2nc(N(CCO)CCO)nc(NC)c2n1.Cl` [Compound 66a, 2-[(4,8-Bis-methylamino-6-n-propylamino-pyrimido[5,4-d]pyrimidin-2-yl)-(2-hydroxy-ethyl)-amino]-ethanol hydrochloride], the “AUC MV Inc (2 min) (ratio vs. std*)” value came to 0.14 ratio vs. std.
The same measure, in the same setting: the same measure for `CCCNc1nc(NC)c2nc(N(CCOC)CCOC)nc(NC)c2n1` [Compound 68a, N^2,N^2-Bis-(2-methoxyethyl)-N^4,N^8-dimethyl-N^6-n-propyl-pyrimido[5,4-d]pyrimidine-2,4,6,8-tetraamine]: 0.00 ratio vs. std.
In the case of `CCCNc1nc(NC)c2nc(N3CCS(=O)(=O)CC3)nc(NC)c2n1.Cl` [Compound 75a, N^2-6-n-Propylamino-N^4,N^8-dimethyl-2-(1,1-dioxo-thiomorpholin-4-yl)-pyrimido-[5,4-d]pyrimidine-2,4,8-triamine hydrochloride], the “AUC MV Inc (2 min) (ratio vs. std*)” value came out at 0.02 ratio vs. std and the “VE Peak (% Inc.)” value stood at 2 % Inc.
Take `CCCNc1nc(NC)c2nc(N3CCC(F)(F)CC3)nc(NC)c2n1` [Compound 77a, N^2-n-Propyl-N^4,N^8-dimethyl-6-(4,4-difluoro-piperidin-1-yl)-pyrimido[5,4-d]pyrimidine-2,4,8-triamine hydrochloride]: the “AUC MV Inc (2 min) (ratio vs. std*)” value was determined as 0.55 ratio vs. std.
With `CNc1nc(NCC(C)C)nc2c(NC)nc(NCC(C)C)nc12.Cl` [Compound 87a, N^2,N^6-Diisobutyl-N^4,N^8-dimethyl-pyrimido[5,4-d]pyrimidine-2,4,6,8-tetraamine hydrochloride], the “AUC MV Inc (2 min) (ratio vs. std*)” value came out at 0.18 ratio vs. std.
For the molecule `C=CCNc1nc(NC)c2nc(NCC=C)nc(NC)c2n1.Cl` [Compound 89a, N^2,N^6-Diallyl-N^4,N^8-dimethyl-pyrimido[5,4-d]pyrimidine-2,4,6,8-tetraamine hydrochloride], the “AUC MV Inc (2 min) (ratio vs. std*)” value amounted to 0.92 ratio vs. std.
Same read-out and setting: the same measure for `CCCNc1nc(NC)c2nc(OCCC)nc(NC)c2n1` [Compound 95a, N^4,N^8-Dimethyl-6-propoxy-N^2-n-propyl-pyrimido[5,4-d]pyrimidine-2,4,8-triamine]: 0.36 ratio vs. std.
`CCCNc1nc(NC)c2nc(SCCC)nc(NC)c2n1` [Compound 97a, N^4,N^8-Dimethyl-N^2-n-propyl-6-propylsulfanyl-pyrimido[5,4-d]pyrimidine-2,4,8-triamine]: the “AUC MV Inc (2 min) (ratio vs. std*)” value was determined as 0.26 ratio vs. std.
`CCCNc1nc(NC)c2nc(OCc3ccccc3)nc(NC)c2n1` [Compound 99a, 6-Benzyloxy-N^4,N^8-Dimethyl-N^2-n-propyl-pyrimido[5,4-d]pyrimidine-2,4,8-triamine]: the “AUC MV Inc (2 min) (ratio vs. std*)” value was determined as 0.19 ratio vs. std.
On to `CCCNc1nc(NC)c2nc(O)nc(NC)c2n1` [Compound 101, 4,8-Bis-methylamino-6-propylamino-pyrimido[5,4-d]pyrimidin-2-ol], for which the “AUC MV Inc (2 min) (ratio vs. std*)” value worked out at 0.00 ratio vs. std.
On to `CCCNc1nc(NC)c2nc(C#N)nc(NC)c2n1` [Compound 103a, 4,8-Bis-methylamino-6-n-propylamino-pyrimido[5,4-d]pyrimidine-2-carbonitrile], for which the “AUC MV Inc (2 min) (ratio vs. std*)” value worked out at 0.00 ratio vs. std.
Take `CCCNc1nc(NC)c2nc(CN)nc(NC)c2n1` [Compound 105a, N^4,N^8-Dimethyl-N^2-n-propyl-6-(aminomethyl)-pyrimido[5,4-d]pyrimidine-2,4,8-triamine]: the “AUC MV Inc (2 min) (ratio vs. std*)” value is 0.00 ratio vs. std.
With `CCCNc1nc(NC)c2nc(C(N)=O)nc(NC)c2n1` [Compound 107a, 6-Carbamoyl-N^4,N^8-dimethyl-N^2-n-propyl-pyrimido[5,4-d]pyrimidine-2,4,8-triamine], the “AUC MV Inc (2 min) (ratio vs. std*)” value amounted to 0.00 ratio vs. std.
As to `CCCN=C(N)c1nc(NC)c2nc(NCCC)nc(NC)c2n1` [Compound 110a, N-(n-Propyl)-[4,8-Bis-methylamino-6-n-propylamino-pyrimido[5,4-d]pyrimidin-2-yl]-amidine], the “AUC MV Inc (2 min) (ratio vs. std*)” value stood at 0.00 ratio vs. std and the “VE Peak (% Inc.)” value is on record as 0 % Inc.
On to `CCCNc1nc(NC)c2ncnc(NC)c2n1` [Compound 116a, N^4,N^8-Dimethyl-N^2-n-propyl-pyrimido[5,4-d]pyrimidine-2,4,8-triamine], for which the “AUC MV Inc (2 min) (ratio vs. std*)” value was found to be 0.00 ratio vs. std.
Regarding `CCCNc1nc(NC)nc2c(NCCC)nc(C#N)nc12` [Compound 122a, 6-Methylamino-4,8-bis-n-propylamino-pyrimido[5,4-d]pyrimidine-2-carbonitrile], the “AUC MV Inc (2 min) (ratio vs. std*)” value worked out at 0.00 ratio vs. std.
As to `CCNc1nc(NCC)c2nc(NCC)nc(NCC)c2n1.Cl` [Compound 125a, N^2,N^4,N^6,N^8-Tetraethyl-pyrimido[5,4-d]pyrimidine-2,4,6,8-tetraamine hydrochloride], the “AUC MV Inc (2 min) (ratio vs. std*)” value was 0.80 ratio vs. std.
Consider `CCCNc1nc(NCC)c2nc(NCCC)nc(NCC)c2n1` [Compound 127a, N^4,N^8-Diethyl-N^2,N^6-di-n-propyl-pyrimido[5,4-d]pyrimidine-2,4,6,8-tetraamine], for which the “AUC MV Inc (2 min) (ratio vs. std*)” value amounted to 0.86 ratio vs. std.
Still for that read-out and setting: the same measure for `CCNc1nc(NCC2CC2)nc2c(NCC)nc(NCC3CC3)nc12` [Compound 129a, N^2,N^6-Bis-cyclopropylmethyl-N^4,N^8-diethyl-pyrimido[5,4-d]pyrimidine-2,4,6,8-tetraamine]: 0.25 ratio vs. std.
Still for that read-out and setting: the figure for `CCNc1nc(NCC2CC2)c2nc(N(CC)CC)nc(NCC3CC3)c2n1.Cl` [Compound 135a, N^2,N^2,N^6-Triethyl-N^4,N^8-bis-cyclopropylmethyl-pyrimido[5,4-d]pyrimidine-2,4,6,8-tetraamine hydrochloride] is 0.00 ratio vs. std.
The same measure, in the same setting: the figure for `CCCNc1nc(N(C)C)nc2c(NCCC)nc(N(C)C)nc12` [Compound 142a, N^2,N^2,N^6,N^6-Tetramethyl-N^4,N^8-di-n-propyl-pyrimido[5,4-d]pyrimidine-2,4,6,8-tetraamine] is 0.05 ratio vs. std; for `C=CCNc1nc(NCC=C)c2nc(N3CCN(Cc4ccc(F)cc4)CC3)nc(NCC=C)c2n1.Cl.Cl` [Compound 148a, N^2,N^4,N^8-Triallyl-6-[4-(4-fluorobenzyl)-piperazin-1-yl]-pyrimido[5,4-d]pyrimidine-2,4,8-triamine dihydrochloride] it is 0.00 ratio vs. std; for `C=CCNc1nc(NCC=C)c2nc(N3CCN(C(c4ccc(F)cc4)c4ccc(F)cc4)CC3)nc(NCC=C)c2n1` [Compound 150a, N^2,N^4,N^8-Triallyl-6-{4-[bis-(4-fluorophenyl)-methyl]-piperazin-1-yl}-pyrimido[5,4-d]pyrimidine-2,4,8-triamine] it is 0.00 ratio vs. std.
As for `CCCNc1nc(N(CC)CC)nc2c(NCCC)nc(NCC)nc12` [Compound 152a, N^2,N^2,N^6-Triethyl-N^4,N^8-di-n-propyl-pyrimido[5,4-d]pyrimidine-2,4,6,8-tetraamine], the “AUC MV Inc (2 min) (ratio vs. std*)” value was determined as 0.00 ratio vs. std.
The same measure, in the same setting: the same measure for `CCCNc1nc(NC)c2nc(NCC(=O)O)nc(NC)c2n1` [Compound 154, (4,8-bis-methylamino-6-n-propylamino-pyrimido[5,4-d]pyrimidin-2-ylamino)-acetic acid]: 0.00 ratio vs. std.

The values above are taken from US9643971B2 (GALLEON PHARMACEUTICALS, INC., priority 2013, dated 2017).
